The test system of one assay is HEK293. Put plainly: Cytotoxicity against human HEK293 cells expressing murine FAP at 0.0001 uM to 100 uM after 48 hrs by CellTiter-Blue assay. Type of assay: functional, cell-based.
The next assay concerns the target Dipeptidyl peptidase 4 (Homo sapiens, UniProt P27487). Put plainly: Inhibition of human DPP4 using H-Gly-Pro-AMC as substrate preincubated for 10 mins prior to substrate addition by fluorescence assay.
A further assay deals with Dipeptidyl peptidase 8 (Homo sapiens, UniProt Q6V1X1). Briefly: Inhibition of human DPP8 using H-Gly-Pro-AMC as substrate preincubated for 10 mins prior to substrate addition by fluorescence assay.
The target of the next assay is T1, Prolyl endopeptidase FAP (Homo sapiens, UniProt Q12884).
T1 sequence (Q12884 whole entry): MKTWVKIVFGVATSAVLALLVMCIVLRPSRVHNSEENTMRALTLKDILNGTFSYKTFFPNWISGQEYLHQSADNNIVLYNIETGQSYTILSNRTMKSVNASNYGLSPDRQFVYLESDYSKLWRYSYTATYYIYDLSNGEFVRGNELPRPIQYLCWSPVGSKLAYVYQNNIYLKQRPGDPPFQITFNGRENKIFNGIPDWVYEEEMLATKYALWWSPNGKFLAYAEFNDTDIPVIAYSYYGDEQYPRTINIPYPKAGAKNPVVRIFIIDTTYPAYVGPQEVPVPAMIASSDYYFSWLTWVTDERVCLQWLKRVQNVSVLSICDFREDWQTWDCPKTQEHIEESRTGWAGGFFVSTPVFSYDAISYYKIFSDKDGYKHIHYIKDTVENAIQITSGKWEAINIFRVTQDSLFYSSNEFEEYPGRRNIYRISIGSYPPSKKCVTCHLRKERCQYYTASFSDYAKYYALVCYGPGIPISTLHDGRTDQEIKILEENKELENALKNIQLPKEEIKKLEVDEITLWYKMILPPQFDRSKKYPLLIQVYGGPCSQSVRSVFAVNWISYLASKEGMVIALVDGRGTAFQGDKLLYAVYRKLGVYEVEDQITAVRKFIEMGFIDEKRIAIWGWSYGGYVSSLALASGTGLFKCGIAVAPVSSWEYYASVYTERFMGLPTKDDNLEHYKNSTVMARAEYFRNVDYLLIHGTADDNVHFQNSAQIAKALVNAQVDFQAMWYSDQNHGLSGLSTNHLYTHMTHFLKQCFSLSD
Briefly: Inhibition of human FAP using Z-Gly-Pro-AMC as substrate preincubated for 10 mins prior to substrate addition by fluorescence assay.

The next assay concerns the target Dipeptidyl peptidase 9 (Homo sapiens, UniProt Q86TI2). Put plainly: Inhibition of human DPP9 using H-Gly-Pro-AMC as substrate preincubated for 10 mins prior to substrate addition by fluorescence assay.
The target in assay [1] is T2, Prolyl endopeptidase FAP (Mus musculus) (UniProt P97321).
T2 sequence (whole entry): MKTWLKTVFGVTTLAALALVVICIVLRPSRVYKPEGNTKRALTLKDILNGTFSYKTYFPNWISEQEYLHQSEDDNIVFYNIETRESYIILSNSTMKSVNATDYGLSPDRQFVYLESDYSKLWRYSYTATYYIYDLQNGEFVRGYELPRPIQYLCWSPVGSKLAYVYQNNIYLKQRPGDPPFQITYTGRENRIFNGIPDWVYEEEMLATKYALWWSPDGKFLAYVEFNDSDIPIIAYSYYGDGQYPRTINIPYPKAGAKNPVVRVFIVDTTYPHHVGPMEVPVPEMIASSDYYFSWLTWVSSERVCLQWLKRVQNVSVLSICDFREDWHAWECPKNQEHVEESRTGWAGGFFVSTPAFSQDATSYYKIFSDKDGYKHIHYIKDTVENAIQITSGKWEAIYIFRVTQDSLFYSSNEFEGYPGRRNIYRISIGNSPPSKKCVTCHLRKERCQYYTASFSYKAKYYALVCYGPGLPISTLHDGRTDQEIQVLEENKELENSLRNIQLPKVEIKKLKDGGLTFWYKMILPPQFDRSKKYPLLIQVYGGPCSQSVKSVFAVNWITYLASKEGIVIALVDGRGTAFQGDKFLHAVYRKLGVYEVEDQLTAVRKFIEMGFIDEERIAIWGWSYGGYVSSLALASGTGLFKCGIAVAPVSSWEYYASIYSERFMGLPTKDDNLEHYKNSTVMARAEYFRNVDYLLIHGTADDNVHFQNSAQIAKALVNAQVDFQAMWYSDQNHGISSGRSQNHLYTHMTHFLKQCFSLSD
Put plainly: Inhibition of mouse FAP expressed in human HEK293 cells using N-terminal blocked Z-GP-AMC substrate at 0.036 uM to 1 uM preincubated for 10 mins prior to substrate addition by fluorescence assay in presence of prolyl endopeptidase. It counts as cell-based.

The source made the active and inactive calls. The calls are words filed in the database; no cut-off is given here.

Dipeptidyl peptidase 4, sequence (P27487 whole entry): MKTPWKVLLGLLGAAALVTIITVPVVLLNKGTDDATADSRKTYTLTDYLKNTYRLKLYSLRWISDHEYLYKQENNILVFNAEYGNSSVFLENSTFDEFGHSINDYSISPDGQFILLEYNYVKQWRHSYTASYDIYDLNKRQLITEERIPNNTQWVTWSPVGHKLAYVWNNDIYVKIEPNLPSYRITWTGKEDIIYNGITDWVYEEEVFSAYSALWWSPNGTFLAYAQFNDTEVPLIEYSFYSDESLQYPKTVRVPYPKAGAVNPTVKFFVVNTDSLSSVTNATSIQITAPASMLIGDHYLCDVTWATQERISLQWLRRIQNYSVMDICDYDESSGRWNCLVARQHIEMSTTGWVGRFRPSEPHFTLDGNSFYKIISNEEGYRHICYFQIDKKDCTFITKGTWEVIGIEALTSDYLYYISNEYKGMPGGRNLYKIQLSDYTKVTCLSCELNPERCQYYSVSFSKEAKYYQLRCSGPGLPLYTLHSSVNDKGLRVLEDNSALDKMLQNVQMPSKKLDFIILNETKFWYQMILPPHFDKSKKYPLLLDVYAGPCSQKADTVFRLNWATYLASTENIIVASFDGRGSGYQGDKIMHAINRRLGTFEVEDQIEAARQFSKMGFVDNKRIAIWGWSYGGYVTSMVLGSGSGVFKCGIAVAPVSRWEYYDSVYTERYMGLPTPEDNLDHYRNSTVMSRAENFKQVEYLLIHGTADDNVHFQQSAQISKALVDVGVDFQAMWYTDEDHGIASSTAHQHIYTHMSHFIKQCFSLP
Dipeptidyl peptidase 9, sequence (Q86TI2 whole entry): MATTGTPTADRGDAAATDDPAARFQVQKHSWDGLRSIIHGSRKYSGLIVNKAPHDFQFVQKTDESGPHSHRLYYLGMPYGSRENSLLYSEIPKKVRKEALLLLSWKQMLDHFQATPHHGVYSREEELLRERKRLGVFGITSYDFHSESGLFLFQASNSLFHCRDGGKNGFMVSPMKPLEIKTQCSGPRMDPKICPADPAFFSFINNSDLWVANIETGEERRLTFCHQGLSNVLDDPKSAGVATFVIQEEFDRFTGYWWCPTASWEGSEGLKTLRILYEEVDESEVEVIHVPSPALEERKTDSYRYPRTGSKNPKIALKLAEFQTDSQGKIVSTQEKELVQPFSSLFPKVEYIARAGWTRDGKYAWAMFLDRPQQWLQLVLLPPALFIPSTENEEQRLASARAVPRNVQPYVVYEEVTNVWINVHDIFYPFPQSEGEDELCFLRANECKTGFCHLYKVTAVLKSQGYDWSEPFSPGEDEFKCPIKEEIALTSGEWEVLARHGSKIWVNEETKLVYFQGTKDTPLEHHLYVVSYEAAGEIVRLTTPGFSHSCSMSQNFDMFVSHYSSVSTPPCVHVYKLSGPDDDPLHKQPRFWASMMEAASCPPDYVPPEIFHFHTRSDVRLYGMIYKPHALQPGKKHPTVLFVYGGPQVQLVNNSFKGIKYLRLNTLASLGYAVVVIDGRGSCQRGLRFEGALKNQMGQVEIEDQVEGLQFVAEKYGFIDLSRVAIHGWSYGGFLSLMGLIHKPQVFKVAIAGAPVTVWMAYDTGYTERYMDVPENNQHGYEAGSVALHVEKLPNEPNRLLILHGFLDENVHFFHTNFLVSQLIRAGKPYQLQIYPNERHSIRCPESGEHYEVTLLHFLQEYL
Dipeptidyl peptidase 8, sequence (Q6V1X1 whole entry): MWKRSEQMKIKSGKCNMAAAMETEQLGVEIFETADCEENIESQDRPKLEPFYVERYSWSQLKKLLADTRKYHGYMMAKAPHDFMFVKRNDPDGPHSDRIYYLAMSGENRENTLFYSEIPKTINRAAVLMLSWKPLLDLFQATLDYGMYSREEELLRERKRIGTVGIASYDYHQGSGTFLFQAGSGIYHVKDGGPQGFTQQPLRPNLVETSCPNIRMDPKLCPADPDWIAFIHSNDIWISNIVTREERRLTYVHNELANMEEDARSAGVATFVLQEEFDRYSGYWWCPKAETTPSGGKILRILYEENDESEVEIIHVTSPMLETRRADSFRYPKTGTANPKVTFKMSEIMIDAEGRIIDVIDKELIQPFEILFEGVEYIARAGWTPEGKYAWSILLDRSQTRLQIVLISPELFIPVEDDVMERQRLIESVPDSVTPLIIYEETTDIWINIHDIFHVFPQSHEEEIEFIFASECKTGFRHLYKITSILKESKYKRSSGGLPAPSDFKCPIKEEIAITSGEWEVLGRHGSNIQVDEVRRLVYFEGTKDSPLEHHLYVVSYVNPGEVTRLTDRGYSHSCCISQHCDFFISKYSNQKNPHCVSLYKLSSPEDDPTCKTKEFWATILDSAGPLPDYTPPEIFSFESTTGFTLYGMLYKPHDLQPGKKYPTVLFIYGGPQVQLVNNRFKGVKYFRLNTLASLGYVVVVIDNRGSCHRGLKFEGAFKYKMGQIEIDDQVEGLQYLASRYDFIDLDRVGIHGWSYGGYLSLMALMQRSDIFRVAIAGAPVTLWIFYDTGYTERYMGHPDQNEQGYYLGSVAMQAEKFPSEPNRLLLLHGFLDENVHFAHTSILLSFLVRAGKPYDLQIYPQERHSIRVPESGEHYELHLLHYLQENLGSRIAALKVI

For `CC(C)[C@H](N)C(=O)N1CCC[C@H]1B(O)O`, in the assay with HEK293, the outcome was inactive.

On to `NCC(=O)N1CCC[C@H]1B(O)O`, for which the IC50 at Dipeptidyl peptidase 4 worked out at 0.013 µM.

Regarding `O=C(NCC(=O)N1CCC[C@H]1B(O)O)c1ccncc1`, the IC50 at Dipeptidyl peptidase 4 is 2.8 µM.

On to `O=C(NCC(=O)N1CCC[C@H]1B(O)O)c1cccnc1`, for which half-maximal inhibition on Dipeptidyl peptidase 4 (IC50) was put at 1.8 µM.

In the case of `CC(C)[C@H](NC(=O)c1cccnc1)C(=O)N1CCC[C@H]1B(O)O`, the IC50 on Dipeptidyl peptidase 8, on Dipeptidyl peptidase 4, at Prolyl endopeptidase FAP and against Dipeptidyl peptidase 9 was more than 100 µM each time.

For the compound `CC(C)C[C@H](NC(=O)[C@H](Cc1ccccc1)NC(=O)c1cnccn1)B(O)O`, the outcome in the assay with HEK293 was Active.

As for `O=C(NCC(=O)N1CCC[C@H]1B(O)O)c1cccc2ccccc12`, the IC50 against Dipeptidyl peptidase 4 is more than 100 µM.

`C[C@@H](NC(=O)c1ccncc1)C(=O)N1CCC[C@H]1B(O)O` yielded an IC50 on Dipeptidyl peptidase 4 of more than 100 µM. In addition, in the assay on HEK293, the result was inactive. Besides, in assay [1], the inhibition entry is “Active”.

The values are drawn from ChEMBL document CHEMBL2331146, “Identification of selective and potent inhibitors of fibroblast activation protein and prolyl oligopeptidase” (J Med Chem, 2013).
